# Measurements: US5892029A, “3-hydroxy-2(1H)-pyridinone chelating agents” (priority 1997, dated 1999)
# Like-named read-outs stand apart in the source and are kept apart here.
# Key:
# [1] = 30 μmol/kg i.p. at 1 h; reported previously (footnote e); cited from earlier work
# [2] = assay type: in vivo, mice
# Experimental: The test of acute toxicity of these novel ligands was carried out as follows. […] The ligand was dissolved in 0.5 to 1.0 ml of saline at pH 7 to 8. After a period of observation, the mice were killed, selected tissues were removed and fixed for histopathological examination,and unusual findings at autopsy were recorded.
# [3] = Liquid/liquid extraction of Pu(IV) from aqueous solution (Tables 7 and 8)
# Experimental: Liquid/liquid extractions were performed with the radioactive plutonium isotope ^242 Pu at the Lawrence Livermore National Laboratory's Glenn T. Seaborg Institute for Transactinium Science, Livermore, Calif. The aqueous phase contained ^242 Pu, while the organic phases contained 3,2-HOPO ligands at 2-5 mM concentration. Kinetic studies were the primary method used to determine the efficacy of the specific ligand in organic solvent. Generally, five microcentrifuge tubes were prepared with the same organic and aqueous phases, and shaken with a vortex-style mixer for 1, 5, 10, and 20 minutes. After mixing, an aliquot of each phase was pipetted from the tube into a scintillation vial, mixed with a scintillation cocktail, and scintillation counted to determine the amount of the radioactive species present in each phase after extraction.
# [4] = protocol IA: 100 μmol/kg × 2 daily, 6 d, two moribund mice autopsied on d 3
# [5] = protocol IA: 100 μmol/kg × 2 daily, 3 d, mean ± SD
# [6] = protocol IA: 100 μmol/kg × 2 daily, 11 d, mean ± SD
# [7] = protocol I: 100 μmol/kg × 10 daily i.p., 11 d, mean ± SD
# [8] = protocol I: 100 μmol/kg × 10 daily i.p., 21 d, mean ± SD
# [9] = protocol II: 500 μmol/kg × 2 in 8 h i.p., 8 d, mean ± SD
# [10] = octanol, 0.10M aqueous, 1.0 min
# [11] = octanol, 0.10M aqueous, 5.0 min
# [12] = octanol, 0.10M aqueous, 10.0 min
# [13] = octanol, 0.10M aqueous, 20.0 min
# [14] = octanol, 5.0M aqueous, 10.0 min
# [15] = octanol, 5.0M aqueous, 20.0 min
smiles,measurement,setting,value
"O=C(NCCCN(CCCCN(CCCNC(=O)c1cccc(=O)n1O)C(=O)c1cccc(=O)n1O)C(=O)c1cccc(=O)n1O)c1cccc(=O)n1O [3,4,3-LI(1,2-HOPO)]",238Pu excreta: feces and GI contents,[1],57% of injected ^238 Pu
same,238Pu excreta: urine 0-24 h,[1],23% of injected ^238 Pu
same,238Pu in kidneys at 24 h,[1],0.2% of injected ^238 Pu
same,238Pu in liver at 24 h,[1],8.9 ± 1.7% of injected ^238 Pu
same,238Pu in skeleton at 24 h,[1],7.5 ± 0.7% of injected ^238 Pu
same,238Pu in soft tissue at 24 h,[1],1.6 ± 0.6% of injected ^238 Pu
same,238Pu in whole body at 24 h,[1],18 ± 1.7% of injected ^238 Pu
"O=C(NCCCCN(CCCNC(=O)c1cccc(=O)n1O)C(=O)c1cccc(=O)n1O)c1cccc(=O)n1O [3,4-LI(1,2-HOPO)]",238Pu excreta: feces and GI contents,[1],58% of injected ^238 Pu
same,238Pu excreta: urine 0-24 h,[1],7.9% of injected ^238 Pu
same,238Pu in kidneys at 24 h,[1],0.6% of injected ^238 Pu
same,238Pu in liver at 24 h,[1],18 ± 4.8% of injected ^238 Pu
same,238Pu in skeleton at 24 h,[1],9.9 ± 3.6% of injected ^238 Pu
same,238Pu in soft tissue at 24 h,[1],5.8 ± 1.3% of injected ^238 Pu
same,238Pu in whole body at 24 h,[1],34 ± 9.2% of injected ^238 Pu
"Cn1ccc(C(=O)NCCCNC(=O)c2ccn(C)c(=O)c2O)c(O)c1=O [3-LI-Me-3,2-HOPO, 1,3-bis[(3-hydroxy-1-methyl-2-oxo-1,2-dihydropyridin-4-yl)carboxamido] propane]",toxicity / mortality (in words),"[2]; mouse, in vivo",all mice were dead by d 3
same,no. of survivors,"[2]; protocol IA: 100 μmol/kg × 2 daily, 6 d, of 10 mice",0
same,body weight,[2]; [4],89 ± 4 percent control
same,kidney weight,[2]; [4],222 ± 29 percent control
same,plasma urea N,[2]; [4],> 1800 percent control
"Cn1ccc(C(=O)NCCCCCCNC(=O)c2ccn(C)c(=O)c2O)c(O)c1=O [6-LI-Me-3,2-HOPO, 1,6-bis[(3-hydroxy-1-methyl-2-oxo-1,2-dihydropyridin-4-yl)carboxamido]hexane]",body weight,[2]; [5],83 ± 3 percent control
same,kidney weight,[2]; [5],132 ± 11 percent control
same,plasma urea N,[2]; [5],343 ± 140 percent control
same,no. of survivors,"[2]; protocol IA: 100 μmol/kg × 2 daily, 3 d, of 5 mice",5
same,body weight,[2]; [6],101 ± 5 percent control
same,kidney weight,[2]; [6],112 ± 13 percent control
same,plasma urea N,[2]; [6],92 ± 6 percent control
same,no. of survivors,"[2]; protocol IA: 100 μmol/kg × 2 daily, 11 d, of 5 mice",3
"CC(=O)N(O)CCCCCNC(=O)CCC(=O)N(O)CCCCCNC(=O)CCC(=O)N(O)CCCCCN [DFO, desferrioxamine B]",238Pu excreta: feces and GI contents,[1],15.1% of injected ^238 Pu
same,238Pu excreta: urine 0-24 h,[1],38% of injected ^238 Pu
same,238Pu in kidneys at 24 h,[1],1.8% of injected ^238 Pu
same,238Pu in liver at 24 h,[1],19 ± 13% of injected ^238 Pu
same,238Pu in skeleton at 24 h,[1],20 ± 11% of injected ^238 Pu
same,238Pu in soft tissue at 24 h,[1],4.5 ± 1.4% of injected ^238 Pu
same,238Pu in whole body at 24 h,[1],45 ± 2.5% of injected ^238 Pu
"CC(=O)N(O)CCCCCNC(=O)CCC(=O)N(O)CCCCCNC(=O)CCC(=O)N(O)CCCCCNC(=O)c1cccc(=O)n1O [DFO-(1,2-HOPO)]",238Pu excreta: feces and GI contents,[1],46.7% of injected ^238 Pu
same,238Pu excreta: urine 0-24 h,[1],9.5% of injected ^238 Pu
same,238Pu in kidneys at 24 h,[1],0.1% of injected ^238 Pu
same,238Pu in liver at 24 h,[1],5.1 ± 2.2% of injected ^238 Pu
same,238Pu in skeleton at 24 h,[1],6.0 ± 0.5% of injected ^238 Pu
same,238Pu in soft tissue at 24 h,[1],2.3 ± 0.5% of injected ^238 Pu
same,238Pu in whole body at 24 h,[1],13 ± 2.9% of injected ^238 Pu
"Cn1ccc(C(=O)NCCN(CCNC(=O)c2ccn(C)c(=O)c2O)CCN(CCNC(=O)c2ccn(C)c(=O)c2O)CCNC(=O)c2ccn(C)c(=O)c2O)c(O)c1=O [H(2,2)-Me-3,2-HOPO, N,N,N',N'-tetrakis[(3-hydroxy-1-methyl-2-oxo-1,2-dihydropyridin-4-yl)carboxamido-ethyl]-ethylenediamine]",body weight,[2]; [7],92 ± 6 percent control
same,plasma urea N,[2]; [7],223 ± 28 percent control
same,no. of survivors,"[2]; protocol I: 100 μmol/kg × 10 daily i.p., 11 d, of 5 mice",5
same,body weight,[2]; [8],87 ± 9 percent control
same,plasma urea N,[2]; [8],225 ± 188 percent control
same,no. of survivors,"[2]; protocol I: 100 μmol/kg × 10 daily i.p., 21 d, of 5 mice",5
same,body weight,[2]; [9],94 ± 6 percent control
same,plasma urea N,[2]; [9],169 ± 10 percent control
same,no. of survivors,"[2]; protocol II: 500 μmol/kg × 2 in 8 h i.p., 8 d, of 19 (TREN) or 10 (H(2,2)) mice",3
CCCCCCCCCCNC(=O)c1ccn(C)c(=O)c1O [Me-2-HOPO-Decylamide],% Pu(IV) Extracted,"[3]; MIBK, 0.10M aqueous, 1.0 min",98.2 ± 4.5%
same,Partition Coefficient,"[3]; MIBK, 0.10M aqueous, 1.0 min",53.63 ± 1.60
same,% Pu(IV) Extracted,"[3]; MIBK, 0.10M aqueous, 5.0 min",95.9 ± 4.4%
same,Partition Coefficient,"[3]; MIBK, 0.10M aqueous, 5.0 min",23.40 ± 1.14
same,% Pu(IV) Extracted,"[3]; MIBK, 0.10M aqueous, 10.0 min",97.7 ± 4.5%
same,Partition Coefficient,"[3]; MIBK, 0.10M aqueous, 10.0 min",42.43 ± 1.43
same,% Pu(IV) Extracted,"[3]; MIBK, 0.10M aqueous, 20.0 min",93.2 ± 4.3%
same,Partition Coefficient,"[3]; MIBK, 0.10M aqueous, 20.0 min",13.63 ± 0.82
same,% Pu(IV) Extracted,"[3]; MIBK, 5.0M aqueous, 1.0 min",97.9 ± 4.5%
same,Partition Coefficient,"[3]; MIBK, 5.0M aqueous, 1.0 min",46.00 ± 1.48
same,% Pu(IV) Extracted,"[3]; MIBK, 5.0M aqueous, 5.0 min",97.9 ± 4.5%
same,Partition Coefficient,"[3]; MIBK, 5.0M aqueous, 5.0 min",46.62 ± 1.43
same,% Pu(IV) Extracted,"[3]; MIBK, 5.0M aqueous, 10.0 min",95.8 ± 4.4%
same,Partition Coefficient,"[3]; MIBK, 5.0M aqueous, 10.0 min",22.87 ± 1.07
same,% Pu(IV) Extracted,"[3]; MIBK, 5.0M aqueous, 20.0 min",81.9 ± 3.8%
same,Partition Coefficient,"[3]; MIBK, 5.0M aqueous, 20.0 min",4.52 ± 0.35
same,% Pu(IV) Extracted,[3]; [10],68.9 ± 3.3%
same,Partition Coefficient,[3]; [10],2.22 ± 0.19
same,% Pu(IV) Extracted,[3]; [11],96.2 ± 4.5%
same,Partition Coefficient,[3]; [11],25.39 ± 1.12
same,% Pu(IV) Extracted,[3]; [12],95.2 ± 4.4%
same,Partition Coefficient,[3]; [12],19.71 ± 1.00
same,% Pu(IV) Extracted,[3]; [13],92.4 ± 4.3%
same,Partition Coefficient,[3]; [13],12.11 ± 0.75
same,% Pu(IV) Extracted,"[3]; octanol, 5.0M aqueous, 1.0 min",98.3 ± 4.6%
same,Partition Coefficient,"[3]; octanol, 5.0M aqueous, 1.0 min",56.64 ± 1.58
same,% Pu(IV) Extracted,"[3]; octanol, 5.0M aqueous, 5.0 min",96.4 ± 4.5%
same,Partition Coefficient,"[3]; octanol, 5.0M aqueous, 5.0 min",26.98 ± 1.13
same,% Pu(IV) Extracted,[3]; [14],93.6 ± 4.4%
same,Partition Coefficient,[3]; [14],14.74 ± 0.83
same,% Pu(IV) Extracted,[3]; [15],88.3 ± 4.1%
same,Partition Coefficient,[3]; [15],7.51 ± 0.53
CCCCCCCCNC(=O)c1ccn(C)c(=O)c1O [Me-2-HOPO-Octylamide],% Pu(IV) Extracted,"[3]; MIBK, 0.10M aqueous, 1.0 min",95.6 ± 4.4%
same,Partition Coefficient,"[3]; MIBK, 0.10M aqueous, 1.0 min",21.90 ± 1.09
same,% Pu(IV) Extracted,"[3]; MIBK, 0.10M aqueous, 5.0 min",91.8 ± 4.3%
same,Partition Coefficient,"[3]; MIBK, 0.10M aqueous, 5.0 min",11.22 ± 0.73
same,% Pu(IV) Extracted,"[3]; MIBK, 0.10M aqueous, 10.0 min",96.8 ± 4.5%
same,Partition Coefficient,"[3]; MIBK, 0.10M aqueous, 10.0 min",30.07 ± 1.26
same,% Pu(IV) Extracted,"[3]; MIBK, 0.10M aqueous, 20.0 min",96.5 ± 4.5%
same,Partition Coefficient,"[3]; MIBK, 0.10M aqueous, 20.0 min",27.56 ± 0.76
same,% Pu(IV) Extracted,"[3]; MIBK, 5.0M aqueous, 1.0 min",98.8 ± 4.6%
same,Partition Coefficient,"[3]; MIBK, 5.0M aqueous, 1.0 min",79.22 ± 1.71
same,% Pu(IV) Extracted,"[3]; MIBK, 5.0M aqueous, 5.0 min",98.2 ± 4.6%
same,Partition Coefficient,"[3]; MIBK, 5.0M aqueous, 5.0 min",53.99 ± 1.54
same,% Pu(IV) Extracted,"[3]; MIBK, 5.0M aqueous, 10.0 min",96.4 ± 4.5%
same,Partition Coefficient,"[3]; MIBK, 5.0M aqueous, 10.0 min",26.82 ± 1.18
same,% Pu(IV) Extracted,"[3]; MIBK, 5.0M aqueous, 20.0 min",83.9 ± 3.9%
same,Partition Coefficient,"[3]; MIBK, 5.0M aqueous, 20.0 min",5.20 ± 0.40
same,% Pu(IV) Extracted,[3]; [10],94.4 ± 4.4%
same,Partition Coefficient,[3]; [10],16.83 ± 0.89
same,% Pu(IV) Extracted,[3]; [11],94.5 ± 4.5%
same,Partition Coefficient,[3]; [11],17.10 ± 1.12
same,% Pu(IV) Extracted,[3]; [12],92.1 ± 4.3%
same,Partition Coefficient,[3]; [12],11.71 ± 0.72
same,% Pu(IV) Extracted,[3]; [13],91.2 ± 4.2%
same,Partition Coefficient,[3]; [13],10.32 ± 0.67
same,% Pu(IV) Extracted,"[3]; octanol, 5.0M aqueous, 1.0 min",97.8 ± 4.1%
same,Partition Coefficient,"[3]; octanol, 5.0M aqueous, 1.0 min",44.22 ± 1.43
same,% Pu(IV) Extracted,"[3]; octanol, 5.0M aqueous, 5.0 min",97.4 ± 4.5%
same,Partition Coefficient,"[3]; octanol, 5.0M aqueous, 5.0 min",36.91 ± 1.30
same,% Pu(IV) Extracted,[3]; [14],95.2 ± 4.4%
same,Partition Coefficient,[3]; [14],19.78 ± 0.98
same,% Pu(IV) Extracted,[3]; [15],91.4 ± 4.3%
same,Partition Coefficient,[3]; [15],10.69 ± 0.67
